Tests used:
[1] = species: Mus musculus; test: Effect on hypothermia in mouse assessed as change in body temperature; assay type: functional
[2] = species: Mus musculus; test: Antinociceptive effect in mouse by tail flick test; assay type: functional
[3] = species: Mus musculus; test: Antinociceptive effect in mouse by hot plate test; assay type: functional
[4] = system: Mus musculus; test: Inhibition of nicotine-induced hypothermia in mouse assessed as change in body temperature at 15000 ug/kg, sc; assay type: functional; set-up: scale not given: the % may be the effect or the level left
[5] = system: Mus musculus; test: Inhibition of nicotine-induced antinociceptive effect in mouse at 15000 ug/kg, sc by hot plate test; assay type: functional
[6] = molecular target: T1, Neuronal acetylcholine receptor; alpha4/beta2 (Homo sapiens, UniProt P17787+P43681); test: Displacement of [3H]epibatidine from alpha-4-beta-2 nAChR; assay type: protein-complex assay
[7] = system: Mus musculus; test: Inhibition of nicotine-induced antinociceptive effect in sc dosed mouse by tail flick test; assay type: functional
[8] = system: Mus musculus; test: Effect on hypothermia in mouse assessed as change in body temperature at 10 mg/kg; assay type: functional
[9] = system: Mus musculus; test: Antinociceptive effect in mouse at 10 mg/kg by tail flick test; assay type: functional
[10] = system: Mus musculus; test: Antinociceptive effect in mouse at 10 mg/kg by hot plate test; assay type: functional
[11] = system: Mus musculus; test: Inhibition of nicotine-induced hypothermia in mouse assessed as change in body temperature at 0.5 ug/kg, sc; assay type: functional; set-up: scale not given: the % may be the effect or the level left
[12] = system: Mus musculus; test: Inhibition of nicotine-induced antinociceptive effect in mouse at 0.5 ug/kg, sc by hot plate test; assay type: functional
[13] = molecular target: Neuronal acetylcholine receptor subunit alpha-7 (Homo sapiens) (UniProt P36544); test: Displacement of [125I]iodoMLA from alpha-7 nAChR at 50 nM
[14] = system: Mus musculus; test: Inhibition of nicotine-induced antinociceptive effect in sc dosed mouse by hot plate test; assay type: functional
[15] = system: Mus musculus; test: Inhibition of nicotine-induced hypothermia in mouse assessed as change in body temperature at 5000 ug/kg, sc; assay type: functional; set-up: scale not given: the % may be the effect or the level left
[16] = molecular target: T1, Neuronal acetylcholine receptor; alpha4/beta2; test: Displacement of [3H]epibatidine from alpha-4-beta-2 nAChR at 31.6 uM; assay type: protein-complex assay

Chain of Neuronal acetylcholine receptor subunit alpha-7 (Homo sapiens) (P36544 whole entry): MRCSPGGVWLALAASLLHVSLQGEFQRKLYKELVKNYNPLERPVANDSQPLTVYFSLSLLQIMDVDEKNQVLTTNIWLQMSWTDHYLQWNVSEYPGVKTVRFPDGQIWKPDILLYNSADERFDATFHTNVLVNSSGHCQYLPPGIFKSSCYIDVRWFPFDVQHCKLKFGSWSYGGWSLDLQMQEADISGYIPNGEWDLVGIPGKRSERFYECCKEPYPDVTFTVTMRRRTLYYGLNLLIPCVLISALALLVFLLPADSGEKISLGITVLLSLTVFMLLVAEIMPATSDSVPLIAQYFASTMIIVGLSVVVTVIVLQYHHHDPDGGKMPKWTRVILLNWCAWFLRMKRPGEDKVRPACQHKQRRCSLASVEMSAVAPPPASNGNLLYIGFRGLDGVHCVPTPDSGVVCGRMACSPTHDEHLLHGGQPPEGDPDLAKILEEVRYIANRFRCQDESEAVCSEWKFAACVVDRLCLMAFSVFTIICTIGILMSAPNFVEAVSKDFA
T1 sequence (P17787 whole entry): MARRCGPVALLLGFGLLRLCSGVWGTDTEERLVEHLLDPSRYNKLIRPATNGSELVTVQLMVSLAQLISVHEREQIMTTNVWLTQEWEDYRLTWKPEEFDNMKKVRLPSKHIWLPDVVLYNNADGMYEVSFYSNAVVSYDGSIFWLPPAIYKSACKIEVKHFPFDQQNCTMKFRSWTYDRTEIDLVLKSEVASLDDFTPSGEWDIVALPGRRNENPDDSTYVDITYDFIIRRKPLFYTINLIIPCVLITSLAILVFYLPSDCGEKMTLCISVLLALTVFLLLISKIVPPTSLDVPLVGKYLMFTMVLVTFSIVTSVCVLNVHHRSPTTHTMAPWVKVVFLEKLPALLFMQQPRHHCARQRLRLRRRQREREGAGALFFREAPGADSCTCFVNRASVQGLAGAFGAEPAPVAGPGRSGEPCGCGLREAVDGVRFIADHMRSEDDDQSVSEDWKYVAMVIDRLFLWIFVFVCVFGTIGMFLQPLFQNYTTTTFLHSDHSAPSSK
T1 sequence (P43681 whole entry): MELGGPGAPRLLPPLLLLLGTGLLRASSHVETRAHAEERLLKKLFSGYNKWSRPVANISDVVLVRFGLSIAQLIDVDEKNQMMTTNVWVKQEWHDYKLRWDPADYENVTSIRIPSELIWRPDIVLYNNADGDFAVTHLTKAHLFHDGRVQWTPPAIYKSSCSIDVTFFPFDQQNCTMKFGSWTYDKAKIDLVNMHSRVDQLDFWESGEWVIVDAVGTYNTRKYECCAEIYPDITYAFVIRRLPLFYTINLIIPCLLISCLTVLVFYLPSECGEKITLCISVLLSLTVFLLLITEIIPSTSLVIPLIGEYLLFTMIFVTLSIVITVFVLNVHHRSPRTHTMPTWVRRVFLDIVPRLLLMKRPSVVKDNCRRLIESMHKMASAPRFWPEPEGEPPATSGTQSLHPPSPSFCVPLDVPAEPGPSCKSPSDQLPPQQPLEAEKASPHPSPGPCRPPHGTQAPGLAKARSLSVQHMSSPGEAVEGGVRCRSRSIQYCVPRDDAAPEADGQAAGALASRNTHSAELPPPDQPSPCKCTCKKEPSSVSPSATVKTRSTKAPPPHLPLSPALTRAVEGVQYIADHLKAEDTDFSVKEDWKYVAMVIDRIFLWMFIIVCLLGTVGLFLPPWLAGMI

SMILES	Ki [6]	Activity [8]	Activity [9]	Activity [10]	Activity [13]	further results
Clc1ccc([C@@H]2C[C@H]3CC[C@@H]2N3)cn1 [(+)-EPIBATIDINE]	–	–	–	–	–	ED50 [1]: 4 µg/kg; ED50 [2]: 6 µg/kg; ED50 [3]: 4 µg/kg
Cc1nc(Cl)ccc1C1CC2CCC1N2 (stereo not drawn)	256 nM	0%	1%	14%	–	Activity [4]: 0%; inhibition in vivo at 15 mg/kg [5]: 10%; AD50 [7]: 9000 µg/kg
CN1C2CCC1C(c1ccc(Cl)nc1)C2 (stereo not drawn)	0.038 nM	–	–	–	–	ED50 [1]: 3 µg/kg; ED50 [2]: 4.4 µg/kg; AD50 [7]: 0.048 µg/kg; Activity [11]: 0%; ED50 [3]: 3 µg/kg; inhibition in vivo at 0.0005 mg/kg [12]: 23%
Fc1ncc(C2CC3NC2c2ccccc23)cc1-c1ccccc1 (stereo not drawn)	128 nM	–	–	–	0%	–
Cc1cc(Cl)ncc1C1CC2CCC1N2 (stereo not drawn)	–	0%	4%	20%	–	AD50 [14]: 1200 µg/kg; AD50 [7]: 400 µg/kg; Activity [15]: 0%
C1=CC2NC1c1ccncc12 (stereo not drawn)	–	–	–	–	0%	Activity [16]: < 15%
Clc1cc2c(cn1)C1CC3CCC1N3C2 (stereo not drawn)	3330 nM	0%	2%	18%	–	–
Nc1cc2c(cn1)C1CC3CCC1N3C2 (stereo not drawn)	12400 nM	0%	2%	16%	–	–
c1cc2c(cn1)C1CCC2N1 (stereo not drawn)	–	–	–	–	0%	Activity [16]: < 15%
Clc1ccc2c(n1)CN1C3CCC1C2C3 (stereo not drawn)	–	0%	3%	17%	–	–
Nc1ccc2c(n1)CN1C3CCC1C2C3 (stereo not drawn)	7370 nM	0%	4%	10%	–	–
c1cnc2c(c1)C1CCC2N1 (stereo not drawn)	–	–	–	–	0%	Activity [16]: < 15%
Clc1ccc(C2CC3NC2c2ccccc23)cn1 (stereo not drawn)	65.2 nM	–	–	–	0%	–

— ChEMBL document CHEMBL1138324, “Synthesis and nicotinic acetylcholine receptor binding properties of bridged and fused ring analogues of epibatidine” (J Med Chem, 2007)
